Results published in the NIST ThermoML archive (doi:10.1016/j.tca.2009.07.008).
Numbers after ± are expanded uncertainties.

Assay: mn = molality of the nth substance listed, in mol/kg
Conditions: 303.15 K, 101 kPa, Liquid, Capillary tube (Ostwald / Ubbelohde) method

CCCCN [1-butanamine] + C1CCOC1
Conditions	viscosity [mPa·s]
m1 = 0.1429	0.329 ± 0.0047
m1 = 0.2304	0.3312 ± 0.0047
m1 = 0.5054	0.336 ± 0.0047
m1 = 0.588	0.3398 ± 0.0047
m1 = 0.7153	0.3442 ± 0.0048
m1 = 0.8391	0.3481 ± 0.0048
m1 = 1.009	0.351 ± 0.0048
m1 = 1.27	0.3549 ± 0.0048
m1 = 1.407	0.3619 ± 0.0048

CCCCN [1-butanamine] + C1COCCO1
Conditions	viscosity [mPa·s]
m1 = 0.1085	1.06 ± 0.0078
m1 = 0.2365	1.046 ± 0.0077
m1 = 0.3679	1.032 ± 0.0077
m1 = 0.4745	1.02 ± 0.0076
m1 = 0.5834	1.007 ± 0.0076
m1 = 0.7574	0.9893 ± 0.0075
m1 = 0.8872	0.9764 ± 0.0074
m1 = 1.004	0.9652 ± 0.0074
m1 = 1.116	0.9543 ± 0.0073

CCCCNCCCC [dibutylamine] + C1CCOC1
Conditions	viscosity [mPa·s]
m1 = 0.1402	0.3333 ± 0.0047
m1 = 0.2993	0.3417 ± 0.0048
m1 = 0.4313	0.3498 ± 0.0048
m1 = 0.5953	0.3567 ± 0.0048
m1 = 0.7592	0.3648 ± 0.0048
m1 = 0.8997	0.3735 ± 0.0049
m1 = 1.027	0.3806 ± 0.0049
m1 = 1.201	0.3912 ± 0.0049
m1 = 1.381	0.4015 ± 0.005

CCCCNCCCC [dibutylamine] + C1COCCO1
Conditions	viscosity [mPa·s]
m1 = 0.1225	1.065 ± 0.0078
m1 = 0.2369	1.053 ± 0.0078
m1 = 0.3608	1.04 ± 0.0077
m1 = 0.4533	1.031 ± 0.0077
m1 = 0.594	1.019 ± 0.0076
m1 = 0.7122	1.006 ± 0.0076
m1 = 0.8855	0.9937 ± 0.0075
m1 = 0.9669	0.9865 ± 0.0075
m1 = 1.138	0.9766 ± 0.0075

CCCNCCC [dipropylamine] + C1CCOC1
Conditions	viscosity [mPa·s]
m1 = 0.1794	0.332 ± 0.0047
m1 = 0.285	0.335 ± 0.0047
m1 = 0.4155	0.3388 ± 0.0047
m1 = 0.5881	0.3437 ± 0.0048
m1 = 0.7109	0.3491 ± 0.0048
m1 = 0.9435	0.3545 ± 0.0048
m1 = 1.051	0.3574 ± 0.0048
m1 = 1.198	0.364 ± 0.0048
m1 = 1.357	0.3717 ± 0.0049

CCCNCCC [dipropylamine] + C1COCCO1
Conditions	viscosity [mPa·s]
m1 = 0.0998	1.062 ± 0.0078
m1 = 0.2282	1.05 ± 0.0077
m1 = 0.341	1.039 ± 0.0077
m1 = 0.4787	1.027 ± 0.0077
m1 = 0.6261	1.012 ± 0.0076
m1 = 0.7266	1.001 ± 0.0075
m1 = 0.8461	0.9902 ± 0.0075
m1 = 0.9821	0.9801 ± 0.0075
m1 = 1.149	0.9661 ± 0.0074

CCCN [propan-1-amine] + C1CCOC1
Conditions	viscosity [mPa·s]
m1 = 0.1123	0.328 ± 0.0047
m1 = 0.2842	0.3315 ± 0.0047
m1 = 0.3986	0.3329 ± 0.0047
m1 = 0.5609	0.3353 ± 0.0047
m1 = 0.7487	0.3395 ± 0.0047
m1 = 0.8957	0.3412 ± 0.0048
m1 = 1.002	0.3436 ± 0.0048
m1 = 1.139	0.3453 ± 0.0048
m1 = 1.377	0.3513 ± 0.0048

CCCN [propan-1-amine] + C1COCCO1
Conditions	viscosity [mPa·s]
m1 = 0.1086	1.06 ± 0.0078
m1 = 0.2456	1.043 ± 0.0077
m1 = 0.3295	1.028 ± 0.0076
m1 = 0.478	1.014 ± 0.0076
m1 = 0.5767	0.9987 ± 0.0075
m1 = 0.7164	0.9852 ± 0.0074
m1 = 0.8321	0.9693 ± 0.0074
m1 = 1.028	0.9504 ± 0.0073
m1 = 1.116	0.9395 ± 0.0072

CCCCN(CCCC)CCCC [tributylamine] + C1CCOC1
Conditions	viscosity [mPa·s]
m1 = 0.1637	0.3385 ± 0.0047
m1 = 0.3071	0.3517 ± 0.0048
m1 = 0.4107	0.3637 ± 0.0048
m1 = 0.5836	0.3764 ± 0.0049
m1 = 0.7131	0.3894 ± 0.0049
m1 = 0.9025	0.4036 ± 0.005
m1 = 1.125	0.4181 ± 0.005
m1 = 1.204	0.4323 ± 0.0051
m1 = 1.31	0.4444 ± 0.0051
